# Test results: US12180207B2 (ARRAY BIOPHARMA INC., priority 2018, dated 2024)
# Assays:
# [1] = target: recombinant human FGFR2 cytoplasmic domain (amino acids 403-822) (Homo sapiens (Human), UniProt P21802); assay: FGFR2 enzyme activity assay (LanthaScreen TR-FRET); assay type: biochemical; conditions: 15 μM ATP, 20 min incubation at 22° C., average of multiple determinations if made, read-out: FGFR2 Enz FRET IC50
# In short: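 Substrate phosphorylation was read by TR-FRET using Eu-PY20 antibody (60 min, 22 °C) after a 20 min, 22 °C reaction. The reaction used 15 μM ATP, 100 nM fluorescent poly-GT peptide and His-tagged FGFR2 403-822 ([…]) at pH 7.5 with 2% DMSO.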
# [2] = target: dephosphorylated FGFR2 (Homo sapiens (Human), UniProt P21802); assay: FGFR enzyme binding assay (HTRF tracer displacement), FGFR2; conditions: 5 nM dephosphorylated FGFR2, average of multiple determinations if made
# Sequence of dephosphorylated FGFR2 (P21802 22-821): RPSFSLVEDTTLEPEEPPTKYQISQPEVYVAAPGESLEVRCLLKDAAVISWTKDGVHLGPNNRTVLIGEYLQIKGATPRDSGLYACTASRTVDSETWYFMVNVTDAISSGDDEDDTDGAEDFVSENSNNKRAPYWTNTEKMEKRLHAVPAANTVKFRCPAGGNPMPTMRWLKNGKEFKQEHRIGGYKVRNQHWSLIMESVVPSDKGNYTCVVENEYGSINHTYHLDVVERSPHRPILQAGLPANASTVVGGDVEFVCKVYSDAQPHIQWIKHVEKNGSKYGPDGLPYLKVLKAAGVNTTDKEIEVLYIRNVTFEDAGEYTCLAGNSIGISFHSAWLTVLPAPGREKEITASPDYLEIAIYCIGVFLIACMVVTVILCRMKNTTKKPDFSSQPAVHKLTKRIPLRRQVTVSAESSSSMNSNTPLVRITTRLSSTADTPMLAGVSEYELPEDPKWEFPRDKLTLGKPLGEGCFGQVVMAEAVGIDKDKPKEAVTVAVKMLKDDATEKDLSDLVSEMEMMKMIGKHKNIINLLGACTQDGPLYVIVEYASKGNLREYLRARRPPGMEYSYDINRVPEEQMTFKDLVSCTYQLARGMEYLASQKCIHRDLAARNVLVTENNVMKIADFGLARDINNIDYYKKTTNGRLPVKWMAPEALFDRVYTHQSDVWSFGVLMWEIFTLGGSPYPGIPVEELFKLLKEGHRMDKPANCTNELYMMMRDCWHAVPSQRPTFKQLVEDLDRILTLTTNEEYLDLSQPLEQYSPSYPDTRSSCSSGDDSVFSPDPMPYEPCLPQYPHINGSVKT
# Procedure: The potency of compounds inhibiting human isoforms of FGFR kinase was determined using Life Technologies' Homogeneous Time Resolved Fluorescence (HTRF)-based binding assay technology. […] After a 60 minute incubation at 22° C., the extent of tracer displacement was determined using a PerkinElmer EnVision multimode plate reader via HTRF dual wavelength detection, and the percent of control (POC) was calculated using a ratiometric emission factor. One hundred POC was determined using no test compound, and 0 POC was determined in the presence of 1 μM of an appropriate control inhibitor.
# [3] = target: recombinant human FGFR3 (amino acids R397-T806) (Homo sapiens (Human), UniProt P22607); assay: FGFR3 enzyme activity assay (LanthaScreen TR-FRET); assay type: biochemical; conditions: 25 μM ATP, 10 min incubation at 22° C., average of multiple determinations if made, read-out: FGFR3 Enz FRET IC50
# Sequence of recombinant human FGFR3 (amino acids R397-T806) (P22607 397-806): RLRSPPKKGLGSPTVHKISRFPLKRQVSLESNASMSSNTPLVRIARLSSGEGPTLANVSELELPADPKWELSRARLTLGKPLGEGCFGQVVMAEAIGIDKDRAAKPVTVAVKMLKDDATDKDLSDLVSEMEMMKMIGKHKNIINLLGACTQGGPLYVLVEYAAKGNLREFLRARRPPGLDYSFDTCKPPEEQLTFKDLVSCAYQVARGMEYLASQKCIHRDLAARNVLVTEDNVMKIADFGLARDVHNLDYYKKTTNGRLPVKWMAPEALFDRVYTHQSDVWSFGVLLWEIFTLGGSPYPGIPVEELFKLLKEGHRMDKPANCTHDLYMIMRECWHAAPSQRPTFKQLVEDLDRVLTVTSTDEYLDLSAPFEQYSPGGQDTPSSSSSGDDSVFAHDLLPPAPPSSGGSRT
# In short: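 GST-HIS6-tagged human FGFR3 (R397-T806) was reacted with 100 nM Alexa Fluor 647-Poly-GT substrate and 25 μM ATP plus compound in HEPES/MgCl2/Triton buffer, pH 7.5, 2% DMSO, for 10 min at 22 °C.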
# [4] = target: recombinant human FGFR1 catalytic domain (amino acids 308-731) (Homo sapiens (Human), UniProt P11362); assay: FGFR1 enzyme activity assay (LanthaScreen TR-FRET); assay type: biochemical; conditions: 20 min incubation at 22° C., average of multiple determinations if made, read-out: FGFR1 Enz FRET IC50
# Sequence of recombinant human FGFR1 catalytic domain (amino acids 308-731) (P11362 other isoform, or with tags, fused parts or gaps): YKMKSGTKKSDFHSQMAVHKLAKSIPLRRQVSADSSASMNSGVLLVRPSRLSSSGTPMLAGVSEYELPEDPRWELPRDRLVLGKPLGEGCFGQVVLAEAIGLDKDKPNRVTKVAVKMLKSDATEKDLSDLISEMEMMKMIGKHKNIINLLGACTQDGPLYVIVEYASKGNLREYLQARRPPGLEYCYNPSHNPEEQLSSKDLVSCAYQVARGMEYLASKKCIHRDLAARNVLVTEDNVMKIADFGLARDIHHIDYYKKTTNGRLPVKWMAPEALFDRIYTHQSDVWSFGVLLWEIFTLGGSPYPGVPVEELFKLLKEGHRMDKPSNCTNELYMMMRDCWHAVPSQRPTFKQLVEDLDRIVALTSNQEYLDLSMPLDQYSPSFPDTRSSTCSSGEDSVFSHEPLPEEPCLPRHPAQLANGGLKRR
# In short: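 His-tagged FGFR1 kinase domain with 100 nM Alexa Fluor 647-poly-GT peptide and ATP in pH 7.5 HEPES/MgCl2 buffer with 2% DMSO, 20 min at 22 °C. Quenched with EDTA plus 2 nM Eu-PY20 antibody and read after 60 min. IC50 comes from a 4-parameter fit of percent of control.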
# Sequence of recombinant human FGFR2 cytoplasmic domain (amino acids 403-822) (P21802 402-821): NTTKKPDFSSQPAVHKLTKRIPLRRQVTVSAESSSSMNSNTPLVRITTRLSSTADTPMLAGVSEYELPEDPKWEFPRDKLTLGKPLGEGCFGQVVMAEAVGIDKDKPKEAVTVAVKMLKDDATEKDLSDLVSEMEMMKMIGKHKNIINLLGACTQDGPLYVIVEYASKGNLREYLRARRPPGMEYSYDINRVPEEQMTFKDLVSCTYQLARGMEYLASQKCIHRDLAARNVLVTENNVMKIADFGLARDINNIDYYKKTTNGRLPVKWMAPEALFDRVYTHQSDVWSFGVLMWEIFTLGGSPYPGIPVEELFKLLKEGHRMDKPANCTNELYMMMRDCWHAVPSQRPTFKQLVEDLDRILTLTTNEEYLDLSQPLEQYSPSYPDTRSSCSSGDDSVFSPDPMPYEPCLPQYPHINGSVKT
IC50 [1],IC50 [2],IC50 [3],IC50 [4],SMILES
1170 nM,125 nM,229 nM,2210 nM,"COc1cc(-c2nn(C3CCN(C(=O)C4(F)CN(C(=O)/C=C/CN(C)C)C4)CC3)nc2C)cn2ncc(C#N)c12 [Example 163, (E)-6-(2-(1-(1-(4-(dimethylamino)but-2-enoyl)-3-fluoroazetidine-3-carbonyl)piperidin-4-yl)-5-methyl-2H-1,2,3-triazol-4-yl)-4-methoxypyrazolo [1,5-a]pyridine-3-carbonitrile]"
15 nM,14 nM,8 nM,102 nM,"COc1cc(-c2nnn(C3CCN(C(=O)C4(F)CN(C(=O)/C=C/CN(C)C)C4)CC3)c2C)cn2ncc(C#N)c12 [Example 164, (E)-6-(1-(1-(1-(4-(dimethylamino)but-2-enoyl)-3-fluoroazetidine-3-carbonyl)piperidin-4-yl)-5-methyl-1H-1,2,3-triazol-4-yl)-4-methoxypyrazolo [1,5-a]pyridine-3-carbonitrile]"
50 nM,219 nM,72 nM,148 nM,"COc1cc(-c2ccc(N3CCN(C(=O)C4(F)CN(C(=O)/C=C/CN(C)C)C4)CC3)nc2C)cn2ncc(C#N)c12 [Example 168, (E)-6-(6-(4-(1-(4-(dimethylamino)but-2-enoyl)-3-fluoroazetidine-3-carbonyl)piperazin-1-yl)-2-methylpyridin-3-yl)-4-methoxypyrazolo [1,5-a]pyridine-3-carbonitrile]"
239 nM,22 nM,17 nM,903 nM,"COc1cc(-c2cnn(C3CCN(C(=O)C4(F)CN(C(=O)/C=C/CN(C)C)C4)CC3)c2C)cn2ncc(Cl)c12 [Example 170, (E)-1-(3-(4-(4-(3-chloro-4-methoxypyrazolo [1,5-a]pyridin-6-yl)-5-methyl-1H-pyrazol-1-yl)piperidine-1-carbonyl)-3-fluoroazetidin-1-yl)-4-(dimethylamino)but-2-en-1-one]"
19 nM,41 nM,24 nM,111 nM,"COc1cc(-c2cnn(C3CCN(C(=O)C4(OC)CN(C(=O)/C=C/CN(C)C)C4)CC3)c2C)cn2ncc(Cl)c12 [Example 171, (E)-1-(3-(4-(4-(3-chloro-4-methoxypyrazolo [1,5-a]pyridin-6-yl)-5-methyl-1H-pyrazol-1-yl)piperidine-1-carbonyl)-3-methoxyazetidin-1-yl)-4-(dimethylamino)but-2-en-1-one]"
454 nM,125 nM,101 nM,856 nM,"C=CC(=O)N1CC(O)(C(=O)N2CCC(n3ncc(-c4cc(OC)c5c(Cl)cnn5c4)c3C)CC2)C1 [Example 172, 1-(3-(4-(4-(3-chloro-4-methoxypyrazolo [1,5-a]pyridin-6-yl)-5-methyl-1H-pyrazol-1-yl)piperidine-1-carbonyl)-3-hydroxyazetidin-1-yl)prop-2-en-1-one]"
28 nM,45 nM,41 nM,281 nM,"COc1cc(-c2cnn(C3CCN(CC4(OC)CN(C(=O)/C=C/CN(C)C)C4)CC3)c2C)cn2ncc(Cl)c12 [Example 173, (E)-1-(3-((4-(4-(3-chloro-4-methoxypyrazolo [1,5-a]pyridin-6-yl)-5-methyl-1H-pyrazol-1-yl)piperidin-1-yl)methyl)-3-methoxyazetidin-1-yl)-4-(dimethylamino)but-2-en-1-one]"
3 nM,6 nM,3 nM,15 nM,"COc1cc(-c2cnn(C3CCN(C(=O)C4CN(C(=O)C#CCO)C4)CC3)c2)cn2ncc(C#N)c12 [Example 179, 6-(1-(1-(1-(4-hydroxybut-2-ynoyl)azetidine-3-carbonyl)piperidin-4-yl)-1H-pyrazol-4-yl)-4-methoxypyrazolo[1,5-a]pyridine-3-carbonitrile]"
2 nM,12 nM,2 nM,9 nM,"COc1cc(-c2cnn(C3CCN(C(=O)C4CN(C(=O)/C=C/CCl)C4)CC3)c2)cn2ncc(C#N)c12 [Example 181, (E)-6-(1-(1-(1-(4-chlorobut-2-enoyl)azetidine-3-carbonyl)piperidin-4-yl)-1H-pyrazol-4-yl)-4-methoxypyrazolo[1,5-a]pyridine-3-carbonitrile]"
3 nM,15 nM,3 nM,12 nM,"COc1cc(-c2cnn(C3CCN(C(=O)C4CN(C(=O)/C=C/CN5CC[C@H](F)C5)C4)CC3)c2)cn2ncc(C#N)c12 [Example 182, (S,E)-6-(1-(1-(1-(4-(3-fluoropyrrolidin-1-yl)but-2-enoyl)azetidine-3-carbonyl)piperidin-4-yl)-1H-pyrazol-4-yl)-4-methoxypyrazolo[1,5-a]pyridine-3-carbonitrile]"
4 nM,19 nM,5 nM,16 nM,"COc1cc(-c2cnn(C3CCN(C(=O)C4CN(C(=O)/C=C/CN5CC[C@@H](F)C5)C4)CC3)c2)cn2ncc(C#N)c12 [Example 183, (R,E)-6-(1-(1-(1-(4-(3-fluoropyrrolidin-1-yl)but-2-enoyl)azetidine-3-carbonyl)piperidin-4-yl)-1H-pyrazol-4-yl)-4-methoxypyrazolo[1,5-a]pyridine-3-carbonitrile]"
4 nM,20 nM,6 nM,15 nM,"COc1cc(-c2cnn(C3CCN(C(=O)C4CN(C(=O)/C=C/CN5CCOCC5)C4)CC3)c2)cn2ncc(C#N)c12 [Example 184, (E)-4-methoxy-6-(1-(1-(1-(4-morpholinobut-2-enoyl)azetidine-3-carbonyl)piperidin-4-yl)-1H-pyrazol-4-yl)pyrazolo[1,5-a]pyridine-3-carbonitrile]"
